# Tests used:
# [1] = tested on: bovine pulmonary arteries (BPA); test: Protoporphyrin IX-associated tissue fluorescence in organ cultured BPA rings; type: cell-based; conditions: for BPA fluorescence: 100 μM ALA without or with 100 μM deferoxamine
# Protocol: (§1) Organoid Culture Isolated Arteries for Heme Modulation. Intralobar BPA were isolated from slaughterhouse-derived bovine calf lungs, cleaned from surrounding tissue, and placed in 37° C. Dulbecco's Modified Eagle Medium (DMEM) containing 10% fetal bovine serum, penicillin, streptomycin, and fungizone (complete media). The arteries were isolated and cut into rings ˜2 mm in diameter and width, and the endothelium was removed by gentle rubbing of the lumen. Various compounds (i.e. ALA, FeSO4(Fe), deferoxamine) were added as described in the Results to various experimental groups, and these arteries were organ cultured overnight for 24 h in complete media in a 37° C.-5% CO2 incubator. Preliminary experiments on the time course for detection protoporphyrin IX accumulation and the effects of organ culture with doses of ALA in the 10-100 μM concentration range on contractile function, and minimizing the duration of organ culture were considerations that contributed to selecting the 24 h culture period used in this study.
# (§2) Determination Changes in Protoporphyrin 1× and Heme Levels. Methods for the detection of protoporphyrin IX tissue fluorescence developed for the detection in cancerous cells with tissue depths of up to several millimeters (27) were adapted for detecting changes in the endogenous levels of protoporphyrin IX in BPA rings which were organ cultured with ALA. When excited with light in the regions of 505 and 540 nm, protoporphyrin IX has an emission in the region of 635 nm. […] Increases in protoporphyrin IX were measured using an excitation wavelength of 528±20 nm and emission of 620±40 nm in intact vessels. Ring segments of approximately equal size (˜4 mm in diameter and length) were centered on the bottom of the ˜6 mm diameter wells of a 96 well microplate with 200 μl of Krebs containing with 10 mM Hepes buffer (pH 7.4), and the fluorescence was measured from the bottom surface of the plate using BIOTEK fluorescent microplate reader (Model FLx800i). Data are reported in the arbitrary fluorescence units measured (AU), after subtraction of the low levels of background fluorescence observed in the absence of BPA.
# [2] = tested on: bovine pulmonary arteries (BPA); test: Isometric force generation to serotonin (5-HT) in organ cultured BPA rings; type: cell-based; conditions: 24 h organ culture
# Protocol: as §1
# (§3) Studies on the Regulation of Contractile Function. Following the overnight incubation, arterial rings were mounted on wire hooks attached to Grass (FT03) force displacement transducers for measurement of changes in isometric force. Tension was adjusted to 5 g, which is the optimal passive force for maximal contraction. Changes in force were recorded on a Grass polygraph (model 7), while vessels were incubated in 10-ml baths (Metro Scientific), which were individually thermostated (37° C.) in Krebs buffer gassed with 21% O2-5% CO2 (balance N2) in the absence of compounds used to modulate BPA protoporphyrin IX levels. Arteries were incubated for 1 h during which passive tension was adjusted to maintain 5 grams. The vessels were then depolarized with Krebs containing 123 mM KCl (High K^+) in place of NaCl, followed by re-equilibration with Krebs, prior to exposure to the experimental protocols. Following the wash with Krebs buffer after the High K^+ treatment, and a 30 min equilibration, BPA were then contracted with serotonin (5-HT) in a dose dependent manner to determine the response to this contractile agent. In some experiments, BPA were pretreated with the sGC inhibitor, 10 μM ODQ, for 15 min before contraction with serotonin. The effects of ODQ on relaxation to NO was determined by first contracting organ cultured control and ODQ-treated BPA with 1 μM 5-HT (after the initial exposure to increasing concentrations of 5-HT and a 30 min equilibration in Krebs).
# [3] = tested on: aorta; test: Contraction to PDBu of aorta from rats treated with ALA in vivo; design: species or system rat; conditions: single dose 60 mg/kg ALA i.p., 24 hours after treatment
# Protocol: The rats were pretreated with 60 mg/kg ALA or with a saline vehicle (i.p.). After 24 hours they were anesthetized with 50 mg/kg sodium pentobarbital and the aorta was removed for in vitro studies. Isolated aortic rings were studied for changes in protoporphyrin IX fluorescence and force under the same conditions similar to those used for bovine pulmonary arteries described above, except that 1 gram of passive force was used.
# [4] = tested on: bovine bronchi; test: Force generation to acetylcholine in organ cultured bovine bronchi; type: cell-based; conditions: organ culture with 0.1 mM ALA for 24 hrs vs absence of ALA
# Protocol: as §3, with “The vessels were then depolarized with Krebs containing 123 mM KCl (High K^+) in place of NaCl, followed by re-equilibration with Krebs, prior to exposure to the experimental protocols. Following the wash with Krebs buffer after the High K^+ treatment, and a 30 min equilibration, BPA were then contracted with serotonin (5-HT) in a dose dependent manner to determine the response to this contractile agent. In some experiments, BPA were pretreated with the sGC inhibitor, 10 μM ODQ, for 15 min before contraction with serotonin.” left out
# Bovine bronchi were isolated from the same lungs used for pulmonary arteries, and studied for changes in protoporphyrin IX fluorescence and force under the same conditions as bovine pulmonary arteries described above. Superoxide was detected by the chemiluminescence produced by 5 μM lucigenin, which was detected by photon counting in a scintillation counter.
# [5] = tested on: VASP serine-239 phosphorylation (cGMP-dependent protein kinase activation); test: Western blot of VASP serine-239 phosphorylation in BPA; type: cell-based, bovine; conditions: organ culture with 100 μM ALA
# Protocol: (§4) Rings from studies on contractile function were snap-frozen in liquid nitrogen, crushed and homogenized in lysis buffer (50 mM Tris-HCl, pH 8.0, 150 mM NaCl, 1 mM EDTA, 1% Triton X-100, 0.5% sodium deoxycholate, 0.1% sodium dodecyl sulfate, 1% of a protease inhibitor cocktail (Sigma) and 1% of a phosphatase inhibitor cocktail (Sigma). The protease inhibitor cocktail included 4-(2-aminoethyl)benzenesulfonyl floride hydrocholride, aprotinin, bestatin hydrochloride, N-(trans-epoxsuccinyl)-L-leucine-4-guanidinobutylamide, leupeptine hemisulfate, pepstatin and the phosphatase inhibitor cocktail included sodium orthovandate, sodium molybdate, sodium tartarate, and imidazole. Protein concentration was determined and 30 μg of protein samples were prepared in electrophoresis sample buffer containing 3% SDS and 3% β-mercaptoethanol and were separated using a 12% gel SDS-PAGE electrophoresis. Membranes were blocked for 1 h in TBST-5% milk and incubated overnight with phospho-VASP antibodies (diluted 1:1000). Membranes were exposed to a secondary horse radish peroxidase linked antibody and visualized with an ECL kit (Amersham). The membranes were subsequently exposed to X-OMAT autoradiography paper (Kodak). Membranes were stripped with TRIS-HCl buffer with 100 mM β-mercaptoethanol at 50° C. for 30 min. Membranes were subsequently washed, blocked and detected for total VASP. Each measurement of phosphorylated VASP was normalized to the total level of VASP, and data are reported as the percent of the levels of phosphorylated VASP seen in control arteries not exposed to agents which modulate the activity of sGC. Expression of sGC was detected with β-sGC subunit antibodies (diluted 1:2000), employing anti-rabbit secondary antibodies, and a protocol where membranes were blocked for 2 h. After analyzing for sGC protein expression, blots were stripped and re-probed for the detection of α-actin protein levels, which were used for normalization of data for statistical analysis based on protein loading.
# [6] = tested on: bovine bronchi; test: Protoporphyrin IX fluorescence in organ cultured bovine bronchi; type: cell-based; conditions: organ culture with 0.1 mM ALA
# Excerpt: as §2
# Bovine bronchi were isolated from the same lungs used for pulmonary arteries, and studied for changes in protoporphyrin IX fluorescence and force under the same conditions as bovine pulmonary arteries described above. […]
# [7] = tested on: sGC; test: Western blot of sGC expression in BPA; type: cell-based, bovine; conditions: organ culture with 100 μM ALA, Western analysis
# Protocol: as §4, with “The membranes were subsequently exposed to X-OMAT autoradiography paper (Kodak). Membranes were stripped with TRIS-HCl buffer with 100 mM β-mercaptoethanol at 50° C. for 30 min.” left out, “Each measurement of phosphorylated VASP was normalized to the total level of VASP, and data are reported as the percent of the levels of phosphorylated VASP seen in control arteries not exposed to agents which modulate the activity of sGC.” left out, “After analyzing for sGC protein expression, blots were stripped and re-probed for the detection of α-actin protein levels, which were used for normalization of data for statistical analysis based on protein loading.” left out
compound,measurement,setting,value
"NCC(=O)CCC(=O)O [ALA, δ-aminolevulinic acid]",fluorescence potentially originating from protoporphyrin IX,"[1]; 10 μM ALA, 24 h organ culture",did not cause a detectable increase in fluorescence
same,increase in fluorescence over the background fluorescence of BPA,"[1]; 50 μM and 100 μM ALA, 24 h organ culture",up to 2 fold
same,BPA fluorescence,[1]; after 8 h of organ culture,1015±79 AU
same,BPA fluorescence,[1]; after 24 h of organ culture,1658±122 AU
same,concentration of protoporphyrin IX solution producing similar fluorescence,[1]; increase in BPA fluorescence caused by 100 μM ALA,~3 µM
same,tissue fluorescence potentially originating from protoporphyrin IX,"[1]; organ culture with 100 μM ALA, after 16 and 24 h of incubation",increase in tissue fluorescence
same,force generation to 5-HT,"[2]; 10 μM ALA, appeared to depress force at higher doses of 5-HT",did not reach statistical significance
same,decrease in force generation to 5-HT,[2]; 50 μM and 100 μM ALA,50-90%
same,force generation to 5-HT,"[2]; 100 μM ALA, 0.1-10 μM 5-HT in the absence of ALA",markedly inhibit force generation
same,contraction of aorta to 10 μM PDBu,[3],decreased contraction
same,force generation to 10 μM acetylcholine (ACh),[4],inhibits (relaxes) force generation
same,VASP serine-239 phosphorylation,[5],increase in VASP phosphorylation
same,protoporphyrin IX fluorescence,[6],time-dependent increase in protoporphyrin IX fluorescence
same,levels of sGC relative to BPA organ cultured in the absence of ALA,[7],71±19%

# From patent publication US7989420B2, “Smooth muscle relaxation” (New York Medical College, priority 2006, dated 2011)
